Results: patent US20100152165A1, “CARBOXYLIC ACID DERIVATIVES” (priority 2006, published 2010)

Key:
normal mice = test: Normal mice single administration oral glucose tolerance test; type: in vivo; conditions: male ICR mice; 10 mg/kg oral 30 minutes before glucose (2 g/kg) loading; at 30 minutes of glucose loading, based on control group
Experimental: Test Method 3: Normal Mice Single Administration Oral Glucose Tolerance Test
This test examined on the blood glucose suppressive action of compounds to be tested after glucose loading using normal mice. Male ICR mice (6 weeks of age) were reared for 1 week in advance, subjected to overnight fasting and then used as animals to be tested. Each compound to be tested was prepared into a 0.5% methyl cellulose suspension and orally administered at a dose of 10 mg/kg 30 minutes before the glucose (2 g/kg) loading. In the control group, 0.5% methyl cellulose was administered. Blood glucose decreasing ratio (%) at the time of 30 minutes of glucose loading was calculated based on the control group.

human GPR40 = target: T1, human GPR40 (Homo sapiens, UniProt O14842); test: GPR40 agonist activity measurement (FLIPR, intracellular calcium); type: cell-based; conditions: human GPR40-expressed CHO cell strain; fluorescence intensity change one minute after measurement
T1 construct: expressed in transfected cells
T1 sequence (O14842 whole entry R211H): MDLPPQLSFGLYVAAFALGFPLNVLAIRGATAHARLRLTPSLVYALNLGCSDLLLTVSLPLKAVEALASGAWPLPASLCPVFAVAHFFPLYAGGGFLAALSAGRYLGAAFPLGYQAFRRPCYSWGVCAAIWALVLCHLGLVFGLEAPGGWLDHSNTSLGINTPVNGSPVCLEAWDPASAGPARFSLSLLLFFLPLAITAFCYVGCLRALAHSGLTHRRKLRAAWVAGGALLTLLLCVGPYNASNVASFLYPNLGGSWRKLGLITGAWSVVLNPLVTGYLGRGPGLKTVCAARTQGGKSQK
Text: Test Method 1: GPR40 Agonist Activity Measurement
i) Cloning of Human GPR40
In accordance with the following procedure, complete length sequence of GPR40 was obtained by a PCR method using a human genomic DNA (Clontech) as the template.
An oligonucleotide consisting of the nucleotide sequence represented by SEQ ID NO:1 was used as the forward primer, and an oligonucleotide consisting of the nucleotide sequence represented by SEQ ID NO:2 as the reverse primer. In this connection, a nucleotide sequence containing a XbaI recognition sequence is added to the […] of each of the aforementioned forward primer and reverse primer. In the PCR, a cycle consisting of 94° C. (15 seconds)/55° C. (30 seconds)/72° C. (1 minute) was repeated 30 times using a Taq DNA polymerase (Ex Taq DNA polymerase; Takara Bio) in the presence of 5% dimethyl sulfoxide (DMSO). As a result, a DNA fragment of about 0.9 kbp was amplified. This DNA fragment was digested with XbaI and then inserted into the XbaI site of a plasmid pEF-BOS-dhfr (Nucleic Acids Research, 18, 5322, 1990) to obtain a plasmid pEF-BOS-dhfr-GPR40.
Nucleotide sequence of GPR40 gene in the plasmid pEF-BOS-dhfr-GPR40 was determined by the dideoxy terminator method using a DNA sequencer (ABI 377 DNA Sequencer; Applied Biosystems). Nucleotide sequence of the GPR40 gene was as the nucleotide sequence represented by SEQ ID NO:3.
ii) Preparation of GPR40 Stable Expression Cell
A CHO dhfr cell (a dihydrofolate reductase (dhfr) gene-deficient CHO cell) was used as the cell for expressing GPR40 protein. In addition, the plasmid pEF-BOS-dhfr-GPR40 obtained in the aforementioned i) was used as the expression plasmid for expressing the GPR40 protein. The CHO dhfr cell in 10% fetal calf serum (FCS)-containing aMEM medium was inoculated into a 6 well plate and cultured overnight to a stage of 80 to 90% confluent, and then gene transfer of 2 μg per well of the plasmid pEF-BOS-dhfr-GPR40 was carried out using a transfection reagent (Lipofectamine 2000; Invitrogen). After 24 hours of the culturing since the gene transfer, the cells were diluted and inoculated again. […] After 20 days of culturing, the thus formed colonies of cells were individually recovered and cultured to obtain CHO cells stably expressing GPR40. Cells showing high reactivity for integral ligands oleic acid and linoleic acid were selected from them.
iii) GPR40 Agonist Activity Measurement
This test was measured by FLIPR (registered trade mark, Molecular Device) using change in the intracellular calcium concentration as the index. The test method is shown below.
A human GPR40-expressed CHO cell strain was inoculated in 6×10^3 cells per well portions into a 384 well black plate (Becton-Dickinson). A Calcium-3 assay kit (Molecular Device) was used as the […] and dissolved in 10 ml per bottle of HBSS-HEPES buffer (pH 7.4, 1×HBSS, 20 mM HEPES, Invitrogen). A 35.68 mg portion of probenecid (Sigma) was dissolved in 250 μl of 1 M NaOH and then adjusted by adding 250 μl of HBSS-HEPES buffer. The fluorescence pigment solution was prepared by mixing 16 ml of HBSS-HEPES buffer, 640 μl of the fluorescence pigment and 32 μl of probenecid, per plate. The medium in the plate was discarded, and the fluorescence pigment solution was dispensed in 40 μl per well portions and incubated at room temperature for 2 hours. Each compound to be tested was dissolved in DMSO, diluted with HBSS-HEPES buffer and then dispensed in 10 μl portions into the plate to start the reaction and measure change in the intracellular calcium concentration by FLIPR. EC50 values of the compounds to be tested were calculated from the dose-response curve of fluorescence intensity changes one minute after the measurement.

MIN6 cell = test: Insulin secretion promoting action using MIN6 cell; type: cell-based, mouse; conditions: relative activity value at 1 μM of compound, control (DMSO) 100%; KRB-HEPES with 2.8 mM or 22.4 mM glucose, 37° C. 2 hours
Experimental: Test Method 2: Insulin Secretion Promoting Action using MIN6 Cell
In this test, the insulin secretion promoting action of compounds to be tested was examined using a mouse pancreatic β cell strain, MIN6 cell. The test method is shown below.
The MIN6 cell was inoculated onto a 96 well plate to a density of 5×10^4 cells/well (200 μl). As the medium, DMEM medium (25 mM glucose) containing 10% FBS, 55 μM of 2-mercaptoethanol, 100 U/ml of penicillin and 100 μg/ml of streptomycin was used. Two days thereafter, the medium was removed using an aspirator, and the plate was once washed with 200 μl of KRB-HEPES (116 mM NaCl, 4.7 mM KCl, 1.2 mM KH2PO4, 1.2 mM MgSO4, 0.25 mM CaCl2, 25 mM NaHCO3, 0.005% FFA Free BSA, 24 mM HEPES (pH 7.4)) containing 2.8 mM glucose, which had been warmed up to 37° C., and again filled with 200 μl of the same buffer and incubated at 37° C. for 1 hour. After removing the aforementioned buffer using an aspirator, this was again washed with the buffer (200 μl), and then a predetermined concentration of each compound to be tested was added to KRB-HEPES containing 2.8 mM or 22.4 mM of glucose, added in 100 μl portions to respective wells and incubated at 37° C. for 2 hours. The aforementioned samples were collected and diluted 100 times, and the insulin concentration was determined using an insulin RIA kit (Amersham). […]

Row | Structure (SMILES) | Blood glucose decreasing ratio (normal mice) [%] | EC50 (human GPR40) [nM] | Insulin secretion promoting action (MIN6 cell) [%]
1 | Cc1c(CNc2ccc(CCC(=O)[O-])c(F)c2)ccc2c1N(c1ccccn1)CCC2.[Na+] [Example 453] | 24 | 25 | –
2 | O=C(O)CCc1ccc(NCc2cccc3c2CCCN3CCOc2ccccc2)cc1F [Example 104] | 20 | 420 | 162
3 | CC(=O)N1CCCc2ccc(COc3ccc(CCC(=O)O)c(F)c3)cc21 [Example 74] | – | 75 | –
4 | CCCN1CCCc2c(CNc3ccc(CCC(=O)O)c(F)c3)cccc21 [Example 87] | – | 82 | –
5 | O=C(O)CCc1ccc(NCc2cccc3c2CCCN3CCOc2ccccc2)nc1 [Example 437] | – | 730 | –
6 | O=C(O)CCc1ccc(NCc2cccc3c2CCCN3CCc2ccccc2)cc1F [Example 89] | 21 | 620 | –
7 | Cc1c(CNc2ccc(CCC(=O)O)c(F)c2)ccc2c1N(c1ccc(C(F)(F)F)cc1)CCC2 [Example 211] | – | 930 | –
8 | CCCN1CCCc2cccc(CNc3ccc(CCC(=O)[O-])c(F)c3)c21.[Na+] [Example 57] | – | 97 | 167
9 | O=C(O)CCc1ccc(NCc2ccc3c(c2)N(c2ccccc2)CCC3)cc1F [Example 86] | – | 19 | –
10 | O=C(O)CCc1ccc(OCc2ccc3c(c2)N(CCC(F)(F)F)CCC3)cc1F [Example 73] | – | 73 | –
11 | COc1ccccc1CCN1CCCc2ccc(CNc3ccc(CCC(=O)O)c(F)c3)c(C)c21 [Example 188] | 24 | 36 | –
12 | Cc1cccc(N2CCCc3ccc(CNc4ccc(CCC(=O)O)c(F)c4)c(C)c32)c1 [Example 215] | – | 320 | –
13 | O=C(O)[C@@H]1C[C@H]1c1ccc(NCc2cccc3c2CCCN3CCOc2ccccc2)cc1 [Example 455] | – | 360 | –
14 | COc1ccccc1OCCN1CCCc2c(CNc3ccc(CCC(=O)O)c(F)c3)cccc21 [Example 176] | – | 91 | –
15 | Cc1ccc(CNc2ccc(CCC(=O)O)c(F)c2)c2c1N(CCOc1ccccc1)CCC2 [Example 424] | – | 130 | –
